According to publication PMC12517105 (Toxicology Reports, 2025):
Like-named read-outs stand apart in the source and are kept apart here.

Columns and labels:
ALI-HBECs [1] = test system: ALI-HBECs; design: species or system human; conditions: for Fraction of parent metabolites that are M1 / Absorption into cells: optimization dataset
From the text: A dosimetry model was developed to contextualize how PAHs interact with ALI-HBECs during exposure (Fig. 1). The model describes the time course dosimetry of two PAHs: […] Model parameters for cell and media compartments were characterized based on measurements for the ALI-HBEC culture system described by […] Technologies (Table 2). […] [28], [67]. We initially modeled parent and metabolite transport among compartments as passive diffusion using ordinary differential equations. […] Consistent with these previous observations, we observed induction of CYP1A1 activity as measured by P450-GloTM (see Results). […] CYP1A1 activity was included as a coefficient of the rate of metabolism for PAH parent which could be triggered by an induction switch. The switch allows for metabolism induction to be turned on or off in future uses of the model. When turned off, the CYP term is set to 1 and the rate of metabolism behaves as described above. […] Parameters were optimized against the optimization UPLC dataset. Parent absorption and metabolism were optimized together against data for BAP in cells. Parent permeability and volatilization were optimized together against data for BAP in media. […] All model parameters and CYP1A1 rational function coefficients were optimized using a maximum log likelihood objective with the Nelder-Mead algorithm and starting values set by visual inspection. The model was built in R version 4.4.2 (R Foundation for Statistical Computing, Vienna, Austria) using the RMagnolia R package version 1.3.15 (https://www.magnoliasci.com/rmagnolia/). The Akaike Information Criterion (AIC) was used for selecting the best model fit for CYP1A1 activity, inclusion of metabolism induction, and inclusion of active efflux. The final model with metabolism induction and active efflux of the metabolite was validated by comparison to data collected in the validation UPLC dataset.

CYP1A1 [2] = experiment: CYP1A1 activity, P450-Glo CYP1A1 Assay in ALI-HBECs; assay type: cell-based, human; conditions: BAP 2.26 µg/cm^2, 0-48 h
Experimental: CYP1A1 activity was measured in ALI-HBECs using the P450-Glo™ CYP1A1 Assay System (Promega, Madison, WI). The protocol was adapted to assess CYP1A1 activity in ALI-HBECs. Luciferin-CEE solution was diluted in DPBS, ALI-HBEC basal media was replaced with DPBS, and 50 µL of Luciferin-CEE solution was added to the apical surface. […] Luminescence was recorded on a Synergy HTX plate reader. Cell viability was measured using the CellTiter-Glo® (CTG) Luminescent Cell Viability Assay (Promega, Madison, WI) per manufacturer’s protocol, and luminescence was recorded on a Synergy HTX plate reader. Background luminescence was subtracted from all data, and CYP1A1 activity was normalized to cell viability for each sample.

CYP1A1 [3] = experiment: RNA-sequencing, differential expression of CYP1A1; assay type: cell-based, human; conditions: 24 h, BAP 0.076-3 µg/cm^2, vs vehicle control
Experimental: (§1) Cells were collected from inserts and lysed with RLT lysis buffer with 1 % β-mercaptoethanol using the RNeasy Mini Kit (Qiagen, Hilden, Germany) and stored at −80 °C. RNA was isolated from cell lysate using the RNeasy Mini Kit per the manufacturer’s protocol and was quantified on a Synergy HTX (BioTek, Winooski, VT, USA) plate reader equipped with a Take3 module (BioTek, Winooski, VT, USA). […] For library construction, mRNA was poly-A selected and libraries were prepared as previously described by Dasgupta et al.. High quality reads with a sequencing length greater than 150 bp were annotated and mapped to the human reference genome GRCh38.p14 using HISAT2, count tables were generated with feature Counts, and differential expression was conducted using the DESeq2 R package version 1.46.0 compared to vehicle control, [64]. In vehicle exposed samples, the fragment per kilobase million (FPKM) was calculated for each gene, and genes with an FPKM > 1 were considered constitutively expressed, [102], [114]. Genes associated with xenobiotic metabolism and transport were identified by pathway enrichment analysis in MetaCore (GeneGo, Thomson Reuters, Carlsbad, CA) and by literature search.

[4] = test system: genes related to xenobiotic metabolism and transport in ALI-HBECs; experiment: RNA-sequencing, differentially expressed xenobiotic transport and metabolism genes; assay type: cell-based, human; conditions: 24 h, by at least one BAP treatment vs vehicle control
Experimental: as §1

[5] = Mass balance experiments: BAP and metabolites in cell, media and mucus fractions by UPLC; assay type: in vitro ADME, human; conditions: human
Experimental: (§2) Normal HBECs (Lonza, Basel, Switzerland) were expanded to passage 4 in PneumaCult™-Ex Plus medium and transferred to 12-well plates with 12 mm transwell inserts ([…] Technologies, Vancouver, BC, Canada) and 30,000 cells per insert or 24-well plates with 6.5 mm transwell inserts ([…] Technologies, Vancouver, BC, Canada) and 9000 cells per insert for differentiation at the ALI using PneumaCult™-ALI medium. Cells were cultured at the ALI for 25 days at 37°C and 5 % CO2 with media changes every 2–3 days and mucus washes using DPBS on the apical surface once a week starting at 14 days post air-lifting to maintain healthy ALI cultures. Just before exposure, media was changed and ALI-HBECs were apically washed with DPBS or ALI media to remove mucus.
(§3) Glass pipettes were used for all collection and extraction steps to reduce loss of compound from binding to plastic. ALI media was used instead of DPBS for all rinse and collection steps due to interference with the fluorescence detector. At each timepoint, basal media was collected and the bottom of the insert rinsed, the apical surface was washed and rinses collected, and cells were collected by scraping with a stainless-steel spatula and rinsed from the insert. All collected fractions were flash frozen in liquid nitrogen and stored at −80°C.
(§4) For Phase 2 metabolite analysis, samples were incubated with β-glucuronidase to deconjugate glucuronide and […] metabolites following methods described by Combie et al.. For cell fractions, 0.1 mm glass beads were added to the sample and placed in a Next Advance Bullet Blender™ 24 (Troy, NY) for 3 min to fully lyse cells and increase recovery. All cell, media, and mucus samples were transferred to amber glass vials and adjusted to pH 5 with acetic acid. β-glucuronidase reconstituted in water was added to samples at 5000 U/mL, and samples were incubated at 65°C for 3 h. Samples were allowed to cool to room temperature before continuing with extractions.
(§5) All samples were spiked with DBC as an internal standard for a final concentration of 2.5 μM to correct compound recovery for extraction efficiency. Cell fractions not previously incubated with β-glucuronidase were lysed by blending with 0.1 mm glass beads. All cell, media, and mucus samples were transferred to glass vials, vortexed and sonicated in ethyl acetate, and incubated for 2 h at −20°C to precipitate any protein. Samples were centrifuged at 2000 rcf for 10 min, and the ethyl acetate supernatant was collected. This was repeated for a total of three rounds. Ethyl acetate was evaporated to dryness under nitrogen gas, samples were reconstituted in 100 μL ACN, and samples were stored at −80°C.
(§6) Glucuronide metabolite formation was estimated as the difference between samples incubated with and without β-glucuronidase at similar timepoints.

ALI-HBECs [6] = experiment: as above; assay type: in vitro ADME, human
Experimental: as §2, §3, §4, §5, §6

[7] = M1 parameter, Active Efflux model
[8] = M1 parameter, Active Efflux model, set as parent value
[9] = M1 parameter, Passive Diffusion model
[10] = M1 parameter, Passive Diffusion model, set as parent value
[11] = parent parameter, No Metabolism Induction
[12] = parent parameter, With Metabolism Induction

SMILES: OC1C=Cc2c(cc3ccc4cccc5ccc2c3c45)C1O (centres unmarked) [7,8-dihydrodiol, BAP-7,8-dihydrodiol]
- Active efflux into media (ALI-HBECs [1]; [7]): 0.000869 L/h
- Active efflux into mucus (ALI-HBECs [1]; [7]): 0.000445 L/h
- Clearance by metabolism (ALI-HBECs [1]; [7]): 0.79 L/hr/kg^3/4
- Fraction of parent metabolites that are M1 (ALI-HBECs [1]; [7]): 0.099
- Volatilization from media (ALI-HBECs [1]; [8]): 0.00185 h⁻¹
- Volatilization from mucus (ALI-HBECs [1]; [8]): 0.00185 h⁻¹
- Clearance by metabolism (ALI-HBECs [1]; [9]): 3.93 L/hr/kg^3/4
- Permeability of cells (ALI-HBECs [1]; [9]): 16.9 ×10⁻⁶ cm/s
- Fraction of parent metabolites that are M1 (ALI-HBECs [1]; [9]): 0.022
- Volatilization from media (ALI-HBECs [1]; [10]): 0.00185 h⁻¹
- Volatilization from mucus (ALI-HBECs [1]; [10]): 0.00185 h⁻¹
- Fraction of M1 formed from parent metabolites (ALI-HBECs [1]; model temporarily optimized to the validation set (BAP 4.67 µg/cm^2)): 0.05

SMILES: c1ccc2c(c1)cc1ccc3cccc4ccc2c1c34 [BAP, Benzo[a]pyrene]
- time of maximum CYP1A1 activity (CYP1A1 [2]): 8 h
- Volatilization from media (ALI-HBECs [1]; [11]): 0.00436 h⁻¹
- Absorption into cells (ALI-HBECs [1]; [11]): 0.47 h⁻¹
- Volatilization from media (ALI-HBECs [1]; [12]): 0.00185 h⁻¹
- Absorption into cells (ALI-HBECs [1]; [12]): 0.24 h⁻¹
- CYP1A1 average induction (mRNA) (CYP1A1 [3]): 12.6 fold
- number of genes related to xenobiotic metabolism significantly differentially expressed [4]: 38 genes
- number of genes related to xenobiotic transport significantly differentially expressed [4]: 8 genes
- recovery at 0 h, 2.26 µg/cm^2 [5]: 85.2%
- recovery at 0 h, 4.67 µg/cm^2 [5]: 87.5%
- time by which BAP was cleared from cells (ALI-HBECs [6]; after exposure): ≤ 48 h
- time before BAP started releasing into the media fraction (ALI-HBECs [6]; optimization dataset): > 4 h
- average BAP recovery at 0 h (amount) (ALI-HBECs [6]; optimization dataset, BAP 2.26 µg/cm^2): 8.6 nmol
- average BAP recovery at 0 h (amount) (ALI-HBECs [6]; validation dataset, BAP 4.67 µg/cm^2): 16.8 nmol
